Data on one substance can be found in patent publication US8349309B2, “Polymeric coupling agents and pharmaceutically-active polymers made therefrom” (Interface Biologics Inc., priority 2004, dated 2013).

This experiment concerns Pseudomonas aeruginosa. Briefly: Macro-dilution minimum inhibitory concentration (MIC) assay. Type of experiment: cell-based.

Method: Minimum inhibitory concentration (MIC) assays were used to evaluate the antimicrobial activity of incubating solutions obtained from drug polymer biodegradation studies against P. aeruginosa. Turbidity of each culture was recorded to evaluate the inhibitory properties of degradation solution of drug polymers.
The same NF polymer incubation solutions assayed via HPLC were also evaluated for antimicrobial activity using a biological assay. A macro-dilution minimum inhibitory concentration (MIC) assay was employed to determine the concentration of antimicrobial (norfloxacin) that would inhibit the growth of a pathogen often associated with device-related infections, Pseudomonas aeruginosa. […] Incubation solutions from both enzyme and buffer control treatment of NF polymer were used in a biological assay matrix that was designed to estimate the concentration of norfloxacin as a function of incubation time and treatment.

In the case of “1-ethyl-6-fluoro-1,4-dihydro-4-oxo-7-piperazine-quinoline-3-carboxylic acid [norfloxacin]”, the MIC came out at 0.8 mu g/mL.
